The supplement of paper PMC10307832

Legend:
Assay in all cases: relative viability (nuclei count vs DMSO), 5 days (fraction); higher = more cells survive
A-427 = test system: A-427
Procedure, shortened: (§1)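 Lung cancer cell lines in 1536-well plates got either a single drug or a fixed anchor-drug dose together with five library-drug doses (not always all listed) in √10 steps, by pin tool, on the day after seeding. Nuclei were counted after 5 days, and relative viability is the treated-to-vehicle ratio of nuclei counts. Values are medians of duplicate plates.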

ABC-1 = test system: ABC-1
Procedure, shortened: as §1

COR-L23 = test system: COR-L23
Procedure, shortened: as §1

EMC-BAC-2 = test system: EMC-BAC-2
Procedure, shortened: as §1

HARA = test system: HARA
Procedure, shortened: as §1

HOP-62 = test system: HOP-62
Procedure, shortened: as §1

LK-2 = test system: LK-2
Procedure, shortened: as §1

LXF-289 = test system: LXF-289
Procedure, shortened: as §1

NCI-H1792 = test system: NCI-H1792
Procedure, shortened: as §1

NCI-H1793 = test system: NCI-H1793
Procedure, shortened: as §1

NCI-H1944 = test system: NCI-H1944
Procedure, shortened: as §1

NCI-H1993 = test system: NCI-H1993
Procedure, shortened: as §1

NCI-H2009 = test system: NCI-H2009
Procedure, shortened: as §1

NCI-H2170 = test system: NCI-H2170
Procedure, shortened: as §1

NCI-H2228 = test system: NCI-H2228
Procedure, shortened: as §1

NCI-H3122 = test system: NCI-H3122
Procedure, shortened: as §1

NCI-H596 = test system: NCI-H596
Procedure, shortened: as §1

NCI-H727 = test system: NCI-H727
Procedure, shortened: as §1

PC-3 [JPC-3] = test system: PC-3 [JPC-3]
Procedure, shortened: as §1

SK-LU-1 = test system: SK-LU-1
Procedure, shortened: as §1

SK-MES-1 = test system: SK-MES-1
Procedure, shortened: as §1

SW 1573 = test system: SW 1573
Procedure, shortened: as §1

SW 900 = test system: SW 900
Procedure, shortened: as §1

## NC(=O)Nc1cc(-c2cccc(F)c2)sc1C(=O)N[C@H]1CCCNC1 [AZD7762] + CCNC(=O)c1noc(-c2cc(C(C)C)c(O)cc2O)c1-c1ccc(CN2CCOCC2)cc1 [Luminespib] (partner 0.01 µM)
A-427; first compound 0.01 µM
  relative viability: 1.23
A-427; first compound 0.03162 µM
  relative viability: 0.967
A-427; first compound 0.1 µM
  relative viability: 0.815
A-427; first compound 0.3162 µM
  relative viability: 0.58
A-427; first compound 1 µM
  relative viability: 0.322
ABC-1; first compound 0.01 µM
  relative viability: 0.545
ABC-1; first compound 0.03162 µM
  relative viability: 0.787
ABC-1; first compound 0.1 µM
  relative viability: 0.361
ABC-1; first compound 0.3162 µM
  relative viability: 0.374
ABC-1; first compound 1 µM
  relative viability: 0.305
COR-L23; first compound 0.01 µM
  relative viability: 0.687
COR-L23; first compound 0.03162 µM
  relative viability: 0.653
COR-L23; first compound 0.1 µM
  relative viability: 0.568
COR-L23; first compound 0.3162 µM
  relative viability: 0.216
COR-L23; first compound 1 µM
  relative viability: 0.117
EMC-BAC-2; first compound 0.01 µM
  relative viability: 1.23
EMC-BAC-2; first compound 0.03162 µM
  relative viability: 1.16
EMC-BAC-2; first compound 0.1 µM
  relative viability: 1.19
EMC-BAC-2; first compound 0.3162 µM
  relative viability: 1.23
EMC-BAC-2; first compound 1 µM
  relative viability: 1.04
HARA; first compound 0.01 µM
  relative viability: 1.02
HARA; first compound 0.03162 µM
  relative viability: 0.71
HARA; first compound 0.1 µM
  relative viability: 0.604
HARA; first compound 0.3162 µM
  relative viability: 0.471
HARA; first compound 1 µM
  relative viability: 0.12
HOP-62; first compound 0.01 µM
  relative viability: 0.983
HOP-62; first compound 0.03162 µM
  relative viability: 0.931
HOP-62; first compound 0.1 µM
  relative viability: 0.606
HOP-62; first compound 0.3162 µM
  relative viability: 0.902
HOP-62; first compound 1 µM
  relative viability: 0.65
LK-2; first compound 0.01 µM
  relative viability: 0.198
LK-2; first compound 0.03162 µM
  relative viability: 0.155
LK-2; first compound 0.1 µM
  relative viability: 0.215
LK-2; first compound 0.3162 µM
  relative viability: 0.164
LK-2; first compound 1 µM
  relative viability: 0.167
LXF-289; first compound 0.01 µM
  relative viability: 0.673
LXF-289; first compound 0.03162 µM
  relative viability: 0.601
LXF-289; first compound 0.1 µM
  relative viability: 0.753
LXF-289; first compound 0.3162 µM
  relative viability: 0.724
LXF-289; first compound 1 µM
  relative viability: 0.456
NCI-H1792; first compound 0.01 µM
  relative viability: 0.586
NCI-H1792; first compound 0.03162 µM
  relative viability: 0.472
NCI-H1792; first compound 0.1 µM
  relative viability: 0.392
NCI-H1792; first compound 0.3162 µM
  relative viability: 0.484
NCI-H1792; first compound 1 µM
  relative viability: 0.481
NCI-H1793; first compound 0.01 µM
  relative viability: 0.175
NCI-H1793; first compound 0.03162 µM
  relative viability: 0.195
NCI-H1793; first compound 0.1 µM
  relative viability: 0.163
NCI-H1793; first compound 0.3162 µM
  relative viability: 0.403
NCI-H1793; first compound 1 µM
  relative viability: 0.179
NCI-H1944; first compound 0.01 µM
  relative viability: 0.85
NCI-H1944; first compound 0.03162 µM
  relative viability: 0.838
NCI-H1944; first compound 0.1 µM
  relative viability: 0.871
NCI-H1944; first compound 0.3162 µM
  relative viability: 0.82
NCI-H1944; first compound 1 µM
  relative viability: 0.689
NCI-H1993; first compound 0.01 µM
  relative viability: 1.04
NCI-H1993; first compound 0.03162 µM
  relative viability: 0.948
NCI-H1993; first compound 0.1 µM
  relative viability: 0.81
NCI-H1993; first compound 0.3162 µM
  relative viability: 0.971
NCI-H1993; first compound 1 µM
  relative viability: 0.678
NCI-H2009; first compound 0.01 µM
  relative viability: 1.06
NCI-H2009; first compound 0.03162 µM
  relative viability: 0.975
NCI-H2009; first compound 0.1 µM
  relative viability: 1.12
NCI-H2009; first compound 0.3162 µM
  relative viability: 0.935
NCI-H2009; first compound 1 µM
  relative viability: 0.663
NCI-H2170; first compound 0.01 µM
  relative viability: 0.644
NCI-H2170; first compound 0.03162 µM
  relative viability: 0.666
NCI-H2170; first compound 0.1 µM
  relative viability: 0.71
NCI-H2170; first compound 0.3162 µM
  relative viability: 0.833
NCI-H2170; first compound 1 µM
  relative viability: 0.724
NCI-H2228; first compound 0.01 µM
  relative viability: 0.139
NCI-H2228; first compound 0.03162 µM
  relative viability: 0.162
NCI-H2228; first compound 0.1 µM
  relative viability: 0.165
NCI-H2228; first compound 0.3162 µM
  relative viability: 0.133
NCI-H2228; first compound 1 µM
  relative viability: 0.125
NCI-H3122; first compound 0.01 µM
  relative viability: 0.0859
NCI-H3122; first compound 0.03162 µM
  relative viability: 0.0843
NCI-H3122; first compound 0.1 µM
  relative viability: 0.109
NCI-H3122; first compound 0.3162 µM
  relative viability: 0.0927
NCI-H3122; first compound 1 µM
  relative viability: 0.0813
NCI-H596; first compound 0.01 µM
  relative viability: 0.985
NCI-H596; first compound 0.03162 µM
  relative viability: 1.02
NCI-H596; first compound 0.1 µM
  relative viability: 0.999
NCI-H596; first compound 0.3162 µM
  relative viability: 1.07
NCI-H596; first compound 1 µM
  relative viability: 1.03
NCI-H727; first compound 0.01 µM
  relative viability: 0.24
NCI-H727; first compound 0.03162 µM
  relative viability: 0.499
NCI-H727; first compound 0.1 µM
  relative viability: 0.291
NCI-H727; first compound 0.3162 µM
  relative viability: 0.325
NCI-H727; first compound 1 µM
  relative viability: 0.279
PC-3 [JPC-3]; first compound 0.01 µM
  relative viability: 0.735
PC-3 [JPC-3]; first compound 0.03162 µM
  relative viability: 0.67
PC-3 [JPC-3]; first compound 0.1 µM
  relative viability: 0.702
PC-3 [JPC-3]; first compound 0.3162 µM
  relative viability: 0.713
PC-3 [JPC-3]; first compound 1 µM
  relative viability: 0.673
SK-LU-1; first compound 0.01 µM
  relative viability: 0.193
SK-LU-1; first compound 0.03162 µM
  relative viability: 0.209
SK-LU-1; first compound 0.1 µM
  relative viability: 0.192
SK-LU-1; first compound 0.3162 µM
  relative viability: 0.206
SK-LU-1; first compound 1 µM
  relative viability: 0.123
SK-MES-1; first compound 0.01 µM
  relative viability: 1.08
SK-MES-1; first compound 0.03162 µM
  relative viability: 0.715
SK-MES-1; first compound 0.1 µM
  relative viability: 0.38
SK-MES-1; first compound 0.3162 µM
  relative viability: 0.19
SK-MES-1; first compound 1 µM
  relative viability: 0.175
SW 1573; first compound 0.01 µM
  relative viability: 0.885
SW 1573; first compound 0.03162 µM
  relative viability: 0.272
SW 1573; first compound 0.1 µM
  relative viability: 0.166
SW 1573; first compound 0.3162 µM
  relative viability: 0.169
SW 1573; first compound 1 µM
  relative viability: 0.161
SW 900; first compound 0.01 µM
  relative viability: 0.182
SW 900; first compound 0.03162 µM
  relative viability: 0.18
SW 900; first compound 0.1 µM
  relative viability: 0.201
SW 900; first compound 0.3162 µM
  relative viability: 0.159
SW 900; first compound 1 µM
  relative viability: 0.146
